Where a name gives a salt, the structure may show the parent alone.
Legend:
[1] = system: normal human aortic smooth muscle cells; assay: Cell growth inhibition tests against human vascular smooth muscle cells (XTT); type: cell-based; conditions: for GI50: read-out: growth inhibitory activity in terms of the GI50 value (concentration of 50% growth inhibition), cultured 72 hours with test compound, XTT, absorbance at 490 nm
Description: Cell Growth Inhibition Tests Against Human Vascular Smooth Muscle Cells
As human vascular smooth muscle cells, normal human aortic smooth muscle cells (Cambrex, catalog No. C-2571) were used. HuMedia-SB2 basal medium (Kurabo Industries, Ltd., catalog No. KS-2150S) containing 5% fetal bovine serum (Kurabo Industries, Ltd., catalog No. KS-6150), 0.5 ng/mL human recombinant epidermal growth factor (Kurabo Industries, Ltd., catalog No. KS-6150), 2 ng/mL human recombinant basic fibroblast growth factor (Kurabo Industries, Ltd., catalog No. KS-6150), 5 μg/mL insulin (Kurabo Industries, Ltd., catalog number KS-6150), 50 μg/mL gentamycin (Kurabo Industries, Ltd., catalog No. KS-6150), and 50 ng/mL amphotericin B (Kurabo Industries, Ltd., catalog No. KS-6150) was used for cell culture. The cells were cultured at 37° C. in a 5% carbon dioxide atmosphere.
The normal human aortic smooth muscle cells (1000 cells/well) were seeded in each well of 96-well plates (Nunc, catalog No. 167008), and cultured overnight. Test compounds diluted stepwise were added, and the cells were further cultured for 72 hours (final volume: 100 μL/well). Fifty μL XTT labeling mixture of Cell Proliferation Kit II (XTT) (Roche Diagnostics, catalog No. 1465015) was added to each well, and the plates were incubated at 37° C. After 4 hours, absorbance at 490 nm (reference wavelength: 655 nm) was measured with a plate reader (Molecular Device, SpectraMax 340PC^384). Growth ratios of the cells in the wells treated with the test compound was calculated based on the growth ratio of the cells in the control well treated with solvent (dimethyl sulfoxide (DMSO)) for 72 hours, which was defined as 100%.

melting point [°C] | Compound | GI50 [1] [µM] | inhibitory activity compared with the corresponding racemic mixture (Compound 12) ([1]; optically active compound versus racemic mixture)
175 to 182 | CC(C)(C)C(=O)NC1=NN(C(=O)C(C)(C)C)C(CN)(c2ccccc2)S1 (stereo not shown) (as salt: hydrochloride) [Compound j, N-[5-Aminomethyl-4-(2,2-dimethylpropionyl)-5-phenyl-4,5-dihydro-1,3,4-thiadiazol-2-yl]-2,2-dimethylpropanamide] | – | –
– | CC(C)(C)C(=O)NC1=NN(C(=O)C(C)(C)C)C(CCNS(C)(=O)=O)(c2ccccc2)S1 (single isomer, unassigned; (-)) [Compound a, (−)-N-[4-(2,2-Dimethylpropionyl)-5-(2-methanesulfonylaminoethyl)-5-phenyl-4,5-dihydro-1,3,4-thiadiazol-2-yl]-2,2-dimethylpropanamide] | < 10 | –
– | CCC(=O)N1N=C(NC(=O)C(C)(C)C)SC1(CCNS(C)(=O)=O)c1ccccc1 (single isomer, unassigned; (-)) [Compound b, (−)-N-[5-(2-Methanesulfonylaminoethyl)-5-phenyl-4-propionyl-4,5-dihydro-1,3,4-thiadiazol-2-yl]-2,2-dimethylpropanamide] | < 10 | –
107 to 110 | CC(C)(C)C(=O)N1N=C(N2CCCC2=O)SC1(CCNS(C)(=O)=O)c1ccccc1 (single isomer, unassigned; (-)) [Compound c, (−)-N-{2-[3-(2,2-Dimethylpropionyl)-5-(2-oxopyrrolidin-1-yl)-2-phenyl-2,3-dihydro-1,3,4-thiadiazol-2-yl]ethyl}methanesulfonamide] | – | –
– | CC(C)C(=O)N1N=C(NC(=O)C(C)(C)C)SC1(CCNS(C)(=O)=O)c1ccccc1 (single isomer, unassigned; (-)) [Compound d, (−)-N-[4-Isobutyryl-5-(2-methanesulfonylaminoethyl)-5-phenyl-4,5-dihydro-1,3,4-thia-diazol-2-yl]-2,2-dimethylpropanamide] | < 10 | –
188 to 191 | CCC(=O)N1N=C(N2CCCC2=O)SC1(CCNS(C)(=O)=O)c1ccccc1 (single isomer, unassigned; (-)) [Compound e, (−)-N-{2-[5-(2-Oxopyrrolidin-1-yl)-2-phenyl-3-propionyl-2,3-dihydro-1,3,4-thiadiazol-2-yl]ethyl}methanesulfonamide] | < 10 | –
187 to 190 | CC(=O)N1N=C(NC(=O)C(C)(C)C)SC1(CCNS(C)(=O)=O)c1ccccc1 (single isomer, unassigned; (-)) [Compound f, (−)-N-[4-Acetyl-5-(2-methanesulfonylaminoethyl)-5-phenyl-4,5-dihydro-1,3,4-thiadiazol-2-yl]-2,2-dimethylpropanamide] | – | –
169 to 171 | CC(=O)N1N=C(N2CCCCC2=O)SC1(CCNS(C)(=O)=O)c1ccccc1 (single isomer, unassigned; (-)) [Compound h, (−)-N-{2-[3-Acetyl-5-(2-oxopiperidino)-2-phenyl-2,3-dihydro-1,3,4-thiadiazol-2-yl]ethyl}methanesulfonamide] | < 10 | –
– | CCNCCS(=O)(=O)NCC1(c2ccccc2)SC(NC(=O)C(C)(C)C)=NN1C(=O)C(C)(C)C (single isomer, unassigned; (-)) [Compound l, (−)-N-[4-(2,2-Dimethylpropionyl)-5-(2-ethylaminoethanesulfonylaminomethyl)-5-phenyl-4,5-dihydro-1,3,4-thiadiazol-2-yl]-2,2-dimethylpropanamide] | < 10 | –
101 to 104 | CN(C)CCS(=O)(=O)NCC1(c2ccccc2)SC(NC(=O)C(C)(C)C)=NN1C(=O)C(C)(C)C (single isomer, unassigned; (-)) [Compound m, (−)-N-[5-(2-Dimethylaminoethanesulfonylaminomethyl)-4-(2,2-dimethylpropionyl)-5-phenyl-4,5-dihydro-1,3,4-thiadiazol-2-yl]-2,2-dimethylpropanamide] | < 10 | more potent inhibitory activities
92 to 95 | CN(C)CCCS(=O)(=O)NCC1(c2ccccc2)SC(NC(=O)C(C)(C)C)=NN1C(=O)C(C)(C)C (single isomer, unassigned; (-)) [Compound n, (−)-N-[5-(3-Dimethylaminopropanesulfonylaminomethyl)-4-(2,2-dimethylpropionyl)-5-phenyl-4,5-dihydro-1,3,4-thiadiazol-2-yl]-2,2-dimethylpropanamide] | < 10 | –
– | CC(C)(C)C(=O)NC1=NN(C(=O)C(C)(C)C)C(CNS(=O)(=O)CCSCCN)(c2ccccc2)S1 (stereo not shown) [Compound 24, N-{5-[2-(2-Aminoethylsulfanyl)ethanesulfonylaminomethyl]-4-(2,2-dimethyl-propionyl)-5-phenyl-4,5-dihydro[1,3,4]thiadiazol-2-yl}-2,2-dimethyl-propionamide] | < 10 | –
137 to 140 | CC(=O)N1N=C(N2CCCC2=O)SC1(CCNS(C)(=O)=O)c1ccccc1 (stereo not shown) [Compound g, N-{2-[3-Acetyl-5-(2-oxopyrrolidin-1-yl)-2-phenyl-2,3-dihydro-1,3,4-thiadiazol-2-yl]-ethyl}methanesulfonamide] | – | –
– | CCNCCS(=O)(=O)NCCC1(c2ccccc2)SC(NC(=O)C(C)(C)C)=NN1C(=O)C(C)(C)C (stereo not shown) [Compound i, N-{4-(2,2-Dimethylpropionyl)-5-[2-(2-ethylaminoethanesulfonylamino)-ethyl]-5-phenyl-4,5-dihydro-1,3,4-thiadiazol-2-yl}-2,2-dimethylpropanamide] | < 10 | –
– | CC(C)(C)C(=O)NC1=NN(C(=O)C(C)(C)C)C(CN)(c2ccccc2)S1 (stereo not shown) [Compound j, N-[5-Aminomethyl-4-(2,2-dimethylpropionyl)-5-phenyl-4,5-dihydro-1,3,4-thiadiazol-2-yl]-2,2-dimethylpropanamide] | < 10 | –
– | C=CS(=O)(=O)NCC1(c2ccccc2)SC(NC(=O)C(C)(C)C)=NN1C(=O)C(C)(C)C (stereo not shown) [Compound k, N-[4-(2,2-Dimethylpropionyl)-5-ethenesulfonylaminomethyl-5-phenyl-4,5-dihydro-1,3,4-thiadiazol-2-yl]-2,2-dimethylpropanamide] | < 10 | –
– | CC(C)(C)C(=O)NC1=NN(C(=O)C(C)(C)C)C(CCCC(=O)NCCO)(c2ccccc2)S1 (stereo not shown) [Compound o, 4-[3-(2,2-Dimethylpropionyl)-5-(2,2-dimethylpropionylamino)-2-phenyl-2,3-dihydro-1,3,4-thiadiazol-2-yl]-N-(2-hydroxyethyl)butanamide] | < 10 | –

— US7910611B2, “Therapeutic agent for restenosis” (Kyowa Hakko Kirin Co., Ltd., priority 2005, dated 2011)
